Measured values taken from paper PMC3605511, “Tumor P-Glycoprotein Correlates with Efficacy of PF-3758309 in in vitro and in vivo Models of Colorectal Cancer” (Frontiers in Pharmacology, 2013).
Read-outs that look alike come from different tables or passages of the source.

Columns and labels:
[1] = tested on: CRC cell lines; experiment: Proliferation assays with and without P-gp inhibitor CP-100356, subset of CRC cell lines; assay type: cell-based, human; conditions: 0.625 μM CP-100356; five out of the six CRC cell lines
Procedure: Cytotoxic/proliferation effects were determined using the sulforhodamine B (SRB) assay (Skehan et al., [1990]) or by resazurin. Briefly, cells in logarithmic growth phase were transferred to 96 well flat bottom plates with lids. […] Media was removed and cells were fixed with cold 10% trichloroacetic acid for 30 min at 4°C. Cells were then washed with water and stained with 0.4% SRB (Fisher Sci., Pittsburgh, PA, USA) for 30 min at room temperature, washed again with 1% acetic acid, followed by stain solubilization with 10 mM tris at room temperature. The plate was then read on a plate reader (Biotek Synergy 2, Winooski, VT, USA) set at an absorbance wavelength of 565 nm. Cell proliferation curves were derived from the raw absorbance (OD) data.

[2] = tested on: GEO cell line xenograft; experiment: CRC cell line xenograft efficacy, GEO; assay type: in vivo, mice; conditions: 25 mg/kg orally twice daily, 14–28 days, end of study tumor volumes
Procedure: For cell line xenografts, CRC cells were harvested in exponential phase growth and resuspended in a 1:1 mixture of serum-free RPMI 1640 and Matrigel (BD Biosciences). Five to ten million cells per mouse were injected subcutaneously into the flank using a 23-gauge needle. Mice were monitored daily for signs of toxicity and were weighed twice weekly. Tumor size was evaluated twice per week by caliper measurements using the following formula: tumor volume = length × width^2 × 0.52. When tumors reached 200–300 mm^3 mice were randomized into two groups with at least 10 tumors per group. Mice were then treated for 14–28 days (until control tumor volume reach ∼1500 mm^3) with either vehicle control (0.5% methylcellulose), or PF-3758309 (25 mg/kg) twice daily by oral gavage.
Human tumor xenograft models were used to evaluate the efficacy of PF-309 in vivo. Eleven different CRC cell line tumor xenografts were treated with 25 mg/kg PF-309 twice daily by oral gavage for 14–28 days (until control tumor volumes reached ∼1500 mm^3). Tumor volumes were measured throughout the study and the % growth inhibition was calculated from the average end of study tumor volumes by:
% Growth Inhibition= (average control volume−average treated volume)/average control volume×100%

[3] = tested on: SW1463; experiment: Cell proliferation assay, SW1463; assay type: cell-based; conditions: Homo sapiens; SW1463, PF-309 alone, 72 h; 1 uM was the maximum concentration used
Procedure: (§1) Cytotoxic/proliferation effects were determined using the sulforhodamine B (SRB) assay (Skehan et al., [1990]) or by resazurin. Briefly, cells in logarithmic growth phase were transferred to 96 well flat bottom plates with lids. One-hundred microliter cell suspensions containing 1500–5000 viable cells were plated into each well and incubated overnight prior to exposure with increasing concentrations of PF-309 for 3–5 days, dependent upon cell type. Media was removed and cells were fixed with cold 10% trichloroacetic acid for 30 min at 4°C. Cells were then washed with water and stained with 0.4% SRB (Fisher Sci., Pittsburgh, PA, USA) for 30 min at room temperature, washed again with 1% acetic acid, followed by stain solubilization with 10 mM tris at room temperature. The plate was then read on a plate reader (Biotek Synergy 2, Winooski, VT, USA) set at an absorbance wavelength of 565 nm. Cell proliferation curves were derived from the raw absorbance (OD) data.
(§2) Since PF-309 appeared to be a strong P-gp and BCRP substrates, we sought to evaluate if the transporters influenced sensitivity in vitro. We evaluated the sensitivity of CRC cell lines to PF-309 treatment in a panel of 27 lines. Cells were exposed to PF-309 at a range of concentrations for 72 h and cell content measured by SRB assay (see Pitts et al., [2013]). […]

[4] = tested on: HCT15; experiment: Cell proliferation assay, HCT15; assay type: cell-based; conditions: Homo sapiens, HCT-15
Procedure: as §1, §2

[5] = tested on: RKO; experiment: Cell proliferation assay, RKO; assay type: cell-based; conditions: Homo sapiens, 72 h, SRB assay
Procedure: as §1, §2

[6] = tested on: DLD1 PgP_KD1; experiment: Proliferation after shRNA knockdown of P-gp, DLD1 PgP_KD1; assay type: cell-based; conditions: Homo sapiens, DLD-1; DLD1 PgP_KD1:50, P-gp shRNA knockdown
Procedure: as §1
The pGIPZ Pgp-specific shRNA expression cassettes, along with control shRNA plasmids including the original pGIPZ vector were purchased from Open Biosystems (Birmingham, AL, USA). […] Successful knockdown of specific genes and gene products was confirmed by semi-quantitative RT-PCR and immunoblotting with specific antibodies. […]

[7] = tested on: SW837; experiment: Cell proliferation assay, SW837; assay type: cell-based; conditions: Homo sapiens; SW837, 72 h, SRB assay
Procedure: as §1, §2

[8] = tested on: CUCRC047 CRC PDTX model; experiment: Patient derived tumor xenograft efficacy, CUCRC047; assay type: in vivo, mice; conditions: 25 mg/kg orally twice daily, 22–56 days, end of study tumor volumes
Procedure: (§3) For patient tumor xenografts, surgical specimens of patients undergoing either removal of a primary or metastatic tumor at the University of Colorado Hospital are implanted subcutaneously into five mice for each patient with a 10-G trochar. After a subsequent growth and passage in mice, tumors are excised, and expanded into cohorts for treatment (n = 6–15 per group). Mice were treated with PF-309 or vehicle (0.5% methylcellulose) for 22–56 days (until control tumor volume reach ∼1500 mm^3) twice daily (BID) by oral gavage (PO). Monitoring of mice and measurements of tumors were conducted as described above. % Growth Inhibition= (average control volume−average treated volume)/average control volume×100% In addition to the cell line xenografts, we also treated 12 different patient derived tumor xenograft (PDTX) CRC models with PF-309 (Figure 6). We were unable to assess how ABCB1 gene expression correlated with efficacy in these models. The PDTX models are propagated in vivo, are not immortalized, and are not grown in in vitro culture. […] Tumor and plasma sample pairs were collected from animals at the end of study for eight tumor models (three cell line xenografts and five PDTX models) and concentrations of PF-309 were measured. […]

[9] = tested on: CUCRC042 CRC PDTX model; experiment: Patient derived tumor xenograft efficacy, CUCRC042; assay type: in vivo, mice; conditions: 25 mg/kg orally twice daily, 22–56 days, end of study tumor volumes
Procedure: as §3

IC50 [3]: > 1000 nM | IC50 ([4]; HCT15, 72 h, SRB assay, read-out: IC50): > 1000 nM | IC50 ([4]; HCT15, PF-309 alone, 72 h (Table 2), read-out: PF-309 IC50): 780 nM | IC50 [6]: 26 nM | IC50 [7]: > 1000 nM
Compound: Cc1nc(Nc2n[nH]c3c2CN(C(=O)N[C@H](CN(C)C)c2ccccc2)C3(C)C)c2sccc2n1 [PF-309]
fold change in the IC50 of PF-309 caused by CP-100356 [1]: 4–100 fold | % Growth inhibition [2]: 42% | IC50 [5]: 3.6 ± 0.1 nM | % Growth inhibition [8]: −24% | % Growth inhibition [9]: 52%
